From patent publication US8802597B2, “Herbicidal pyrimidines” (E I du Pont de Nemours and Company, priority 2003, dated 2014)

Tests used:
Format in all cases: in vivo
[1] = system: common chickweed (Stellaria media); experiment: Test D pre/postemergence; conditions: scale 0 to 100 (100 = complete control)
Procedure, shortened: (§1)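 Weed and cereal species treated preemergence, or postemergence at 2–18 cm (1- to 4-leaf stage), with test chemicals in non-phytotoxic solvent with surfactant. Kept in controlled growth environment 15 to 25 days, then rated visually against controls on a 0 (no effect) to 100 (complete control) scale.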

[2] = system: wild mustard (Sinapis arvensis); experiment: Test D pre/postemergence; conditions: scale 0 to 100 (100 = complete control)
Procedure, shortened: as §1

kochia (Kochia scoparia) = experiment: Test D pre/postemergence; conditions: scale 0 to 100 (100 = complete control)
Procedure, shortened: as §1

[3] = system: catchweed bedstraw (galium; Galium aparine); experiment: Test D pre/postemergence; conditions: scale 0 to 100 (100 = complete control)
Procedure, shortened: as §1

[4] = system: wheat (Triticum aestivum); experiment: Test D pre/postemergence; conditions: scale 0 to 100 (100 = complete control)
Procedure, shortened: as §1

[5] = system: wild buckwheat (Polygonum convolvulus); experiment: Test D pre/postemergence; conditions: scale 0 to 100 (100 = complete control)
Procedure, shortened: as §1

[6] = system: lambsquarters (Chenopodium album); experiment: Test D pre/postemergence; conditions: scale 0 to 100 (100 = complete control)
Procedure, shortened: as §1

[7] = system: Russian thistle (Salsola kali); experiment: Test D pre/postemergence; conditions: scale 0 to 100 (100 = complete control)
Procedure, shortened: as §1

[8] = system: pigweed (Amaranthus retroflexus); experiment: Test D pre/postemergence; conditions: scale 0 to 100 (100 = complete control)
Procedure, shortened: as §1

[9] = system: itchgrass (Rottboellia cochinchinensis); experiment: Test G pre/postemergence; conditions: Preemergence
Procedure, shortened: (§2)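 Test chemicals in non-phytotoxic solvent with surfactant applied preemergence to sown seeds or nutlets and postemergence to plants 2–18 cm tall (1- to 4-leaf stage). Greenhouse-held 12–21 days, then visually rated against untreated controls on a 0 (no effect) to 100 (complete control) scale.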

[10] = system: southern sandbur (Cenchrus echinatus); experiment: Test G pre/postemergence; conditions: Preemergence
Procedure, shortened: as §2

[11] = system: field bindweed (Convolvulus arvensis); experiment: Test G pre/postemergence; conditions: Preemergence
Procedure, shortened: as §2

[12] = system: green foxtail (Setaria viridis); experiment: Test G pre/postemergence; conditions: Preemergence
Procedure, shortened: as §2

With CCOC(=O)c1nc(C2CC2)nc(N)c1Cl [Compound 4, ethyl 6-amino-5-chloro-2-cyclopropyl-4-pyrimidinecarboxylate] the “Plant response rating, Chickweed” value ([1]; Postemergence, 16 g ai/ha) was 65, the “Plant response rating, Chickweed” value ([1]; Postemergence, 31 g ai/ha) was 100 and the “Plant response rating, Chickweed” value ([1]; Postemergence, 62 g ai/ha) was 100. For the same molecule, the “Plant response rating, Chickweed” value ([1]; Postemergence, 125 g ai/ha) was 100, the “Plant response rating, Chickweed” value ([1]; Preemergence, 16 g ai/ha) was 65 and the “Plant response rating, Chickweed” value ([1]; Preemergence, 31 g ai/ha) was 70. For the same molecule, the “Plant response rating, Chickweed” value ([1]; Preemergence, 62 g ai/ha) was 85, the “Plant response rating, Chickweed” value ([1]; Preemergence, 125 g ai/ha) was 100 and the “Plant response rating, Mustard, Wild” value ([2]; Postemergence, 16 g ai/ha) was 65. The “Plant response rating, Mustard, Wild” value ([2]; Postemergence, 31 g ai/ha) was 65, the “Plant response rating, Mustard, Wild” value ([2]; Postemergence, 62 g ai/ha) was 75 and the “Plant response rating, Mustard, Wild” value ([2]; Postemergence, 125 g ai/ha) was 90. The “Plant response rating, Mustard, Wild” value ([2]; Preemergence, 16 g ai/ha) was 65, the “Plant response rating, Mustard, Wild” value ([2]; Preemergence, 31 g ai/ha) was 85 and the “Plant response rating, Mustard, Wild” value ([2]; Preemergence, 62 g ai/ha) was 85. For the same molecule, the “Plant response rating, Mustard, Wild” value ([2]; Preemergence, 125 g ai/ha) was 85, the “Plant response rating, Kochia” value (kochia (Kochia scoparia); Postemergence, 16 g ai/ha) was 85 and the “Plant response rating, Kochia” value (kochia (Kochia scoparia); Postemergence, 31 g ai/ha) was 100. The “Plant response rating, Kochia” value (kochia (Kochia scoparia); Postemergence, 62 g ai/ha) was 100, the “Plant response rating, Kochia” value (kochia (Kochia scoparia); Postemergence, 125 g ai/ha) was 100 and the “Plant response rating, Kochia” value (kochia (Kochia scoparia); Preemergence, 16 g ai/ha) was 85. For the same molecule, the “Plant response rating, Kochia” value (kochia (Kochia scoparia); Preemergence, 31 g ai/ha) was 100, the “Plant response rating, Kochia” value (kochia (Kochia scoparia); Preemergence, 62 g ai/ha) was 100 and the “Plant response rating, Kochia” value (kochia (Kochia scoparia); Preemergence, 125 g ai/ha) was 100. The “Plant response rating, Galium” value ([3]; Postemergence, 16 g ai/ha) was 100, the “Plant response rating, Galium” value ([3]; Postemergence, 31 g ai/ha) was 100 and the “Plant response rating, Galium” value ([3]; Postemergence, 62 g ai/ha) was 100. The “Plant response rating, Galium” value ([3]; Postemergence, 125 g ai/ha) was 100, the “Plant response rating, Galium” value ([3]; Preemergence, 16 g ai/ha) was 90 and the “Plant response rating, Galium” value ([3]; Preemergence, 31 g ai/ha) was 100. The “Plant response rating, Galium” value ([3]; Preemergence, 62 g ai/ha) was 100, the “Plant response rating, Galium” value ([3]; Preemergence, 125 g ai/ha) was 100 and the “Plant response rating, Wheat” value ([4]; Postemergence, 16 g ai/ha) was 80. For the same molecule, the “Plant response rating, Wheat” value ([4]; Postemergence, 31 g ai/ha) was 85, the “Plant response rating, Wheat” value ([4]; Postemergence, 62 g ai/ha) was 100 and the “Plant response rating, Wheat” value ([4]; Postemergence, 125 g ai/ha) was 100. For the same molecule, the “Plant response rating, Wheat” value ([4]; Preemergence, 31 g ai/ha) was 70, the “Plant response rating, Wheat” value ([4]; Preemergence, 62 g ai/ha) was 80 and the “Plant response rating, Wheat” value ([4]; Preemergence, 125 g ai/ha) was 80. For the same molecule, the “Plant response rating, Buckwheat, Wild” value ([5]; Postemergence, 16 g ai/ha) was 80, the “Plant response rating, Buckwheat, Wild” value ([5]; Postemergence, 31 g ai/ha) was 85 and the “Plant response rating, Buckwheat, Wild” value ([5]; Postemergence, 62 g ai/ha) was 100. For the same molecule, the “Plant response rating, Buckwheat, Wild” value ([5]; Postemergence, 125 g ai/ha) was 100, the “Plant response rating, Buckwheat, Wild” value ([5]; Preemergence, 16 g ai/ha) was 60 and the “Plant response rating, Buckwheat, Wild” value ([5]; Preemergence, 31 g ai/ha) was 80. For the same molecule, the “Plant response rating, Buckwheat, Wild” value ([5]; Preemergence, 62 g ai/ha) was 100, the “Plant response rating, Buckwheat, Wild” value ([5]; Preemergence, 125 g ai/ha) was 100 and the “Plant response rating, Lambsquarters” value ([6]; Postemergence, 16 g ai/ha) was 95. For the same molecule, the “Plant response rating, Lambsquarters” value ([6]; Postemergence, 31 g ai/ha) was 100, the “Plant response rating, Lambsquarters” value ([6]; Postemergence, 62 g ai/ha) was 100 and the “Plant response rating, Lambsquarters” value ([6]; Postemergence, 125 g ai/ha) was 100. For the same molecule, the “Plant response rating, Lambsquarters” value ([6]; Preemergence, 16 g ai/ha) was 70, the “Plant response rating, Lambsquarters” value ([6]; Preemergence, 31 g ai/ha) was 80 and the “Plant response rating, Lambsquarters” value ([6]; Preemergence, 62 g ai/ha) was 100. The “Plant response rating, Lambsquarters” value ([6]; Preemergence, 125 g ai/ha) was 100, the “Plant response rating, Russian Thistle” value ([7]; Postemergence, 16 g ai/ha) was 80 and the “Plant response rating, Russian Thistle” value ([7]; Postemergence, 31 g ai/ha) was 90. The “Plant response rating, Russian Thistle” value ([7]; Postemergence, 62 g ai/ha) was 100, the “Plant response rating, Russian Thistle” value ([7]; Postemergence, 125 g ai/ha) was 100 and the “Plant response rating, Russian Thistle” value ([7]; Preemergence, 16 g ai/ha) was 90. The “Plant response rating, Russian Thistle” value ([7]; Preemergence, 31 g ai/ha) was 100, the “Plant response rating, Russian Thistle” value ([7]; Preemergence, 62 g ai/ha) was 100 and the “Plant response rating, Russian Thistle” value ([7]; Preemergence, 125 g ai/ha) was 100. For the same molecule, the “Plant response rating, Pigweed” value ([8]; Postemergence, 16 g ai/ha) was 85, the “Plant response rating, Pigweed” value ([8]; Postemergence, 31 g ai/ha) was 100 and the “Plant response rating, Pigweed” value ([8]; Postemergence, 62 g ai/ha) was 100. The “Plant response rating, Pigweed” value ([8]; Postemergence, 125 g ai/ha) was 100, the “Plant response rating, Pigweed” value ([8]; Preemergence, 16 g ai/ha) was 70 and the “Plant response rating, Pigweed” value ([8]; Preemergence, 31 g ai/ha) was 90. The “Plant response rating, Pigweed” value ([8]; Preemergence, 62 g ai/ha) was 100, the “Plant response rating, Pigweed” value ([8]; Preemergence, 125 g ai/ha) was 100 and the “Plant response rating, Itchgrass” value ([9]; 62 g ai/ha, scale 0-100) was 70. For the same molecule, the “Plant response rating, Itchgrass” value ([9]; 125 g ai/ha, scale 0-100) was 70, the “Plant response rating, Itchgrass” value ([9]; 250 g ai/ha, scale 0-100) was 80 and the “Plant response rating, Itchgrass” value ([9]; 500 g ai/ha, scale 0 to 100) was 95. The “Plant response rating, Sandbur” value ([10]; 62 g ai/ha, scale 0-100) was 30, the “Plant response rating, Sandbur” value ([10]; 125 g ai/ha, scale 0-100) was 80 and the “Plant response rating, Sandbur” value ([10]; 250 g ai/ha, scale 0-100) was 90. For the same molecule, the “Plant response rating, Sandbur” value ([10]; 500 g ai/ha, scale 0 to 100) was 100, the “Plant response rating, Bindweed, Field” value ([11]; 62 g ai/ha, scale 0-100) was 100 and the “Plant response rating, Bindweed, Field” value ([11]; 125 g ai/ha, scale 0-100) was 100. For the same molecule, the “Plant response rating, Bindweed, Field” value ([11]; 250 g ai/ha, scale 0-100) was 100, the “Plant response rating, Bindweed, Field” value ([11]; 500 g ai/ha, scale 0 to 100) was 100 and the “Plant response rating, Foxtail, Green” value ([12]; 62 g ai/ha, scale 0-100) was 20. For the same molecule, the “Plant response rating, Foxtail, Green” value ([12]; 125 g ai/ha, scale 0-100) was 70, the “Plant response rating, Foxtail, Green” value ([12]; 250 g ai/ha, scale 0-100) was 100 and the “Plant response rating, Foxtail, Green” value ([12]; 500 g ai/ha, scale 0 to 100) was 100.
